The text below walks through data of US20090118332A1, “Therapeutic Agents - 551” (AstraZeneca AB, priority 2006, published 2009).

This experiment has as its target T1, human Fatty Acid Synthase (Homo sapiens, UniProt P49327).
T1 construct: made in house
The experiment can be described thus: Human FAS enzyme assay (decrease in NADPH fluorescence). To be noted: % inhibition at a concentration of 100 μmolar. Type of experiment: biochemical. Put shortly:
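In-house human FAS was preincubated with compound and NADPH for 15 min at room temperature in 0.1 M Tris pH 7.5 with EDTA, glutathione and BSA. Malonyl CoA and acetyl CoA (500 μM and 150 μM in the added mix) were then added for 60 min. IC50 came from time-zero-subtracted NADPH fluorescence (340/460 nm).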

Structures are written as SMILES.

T1 sequence (P49327 whole entry): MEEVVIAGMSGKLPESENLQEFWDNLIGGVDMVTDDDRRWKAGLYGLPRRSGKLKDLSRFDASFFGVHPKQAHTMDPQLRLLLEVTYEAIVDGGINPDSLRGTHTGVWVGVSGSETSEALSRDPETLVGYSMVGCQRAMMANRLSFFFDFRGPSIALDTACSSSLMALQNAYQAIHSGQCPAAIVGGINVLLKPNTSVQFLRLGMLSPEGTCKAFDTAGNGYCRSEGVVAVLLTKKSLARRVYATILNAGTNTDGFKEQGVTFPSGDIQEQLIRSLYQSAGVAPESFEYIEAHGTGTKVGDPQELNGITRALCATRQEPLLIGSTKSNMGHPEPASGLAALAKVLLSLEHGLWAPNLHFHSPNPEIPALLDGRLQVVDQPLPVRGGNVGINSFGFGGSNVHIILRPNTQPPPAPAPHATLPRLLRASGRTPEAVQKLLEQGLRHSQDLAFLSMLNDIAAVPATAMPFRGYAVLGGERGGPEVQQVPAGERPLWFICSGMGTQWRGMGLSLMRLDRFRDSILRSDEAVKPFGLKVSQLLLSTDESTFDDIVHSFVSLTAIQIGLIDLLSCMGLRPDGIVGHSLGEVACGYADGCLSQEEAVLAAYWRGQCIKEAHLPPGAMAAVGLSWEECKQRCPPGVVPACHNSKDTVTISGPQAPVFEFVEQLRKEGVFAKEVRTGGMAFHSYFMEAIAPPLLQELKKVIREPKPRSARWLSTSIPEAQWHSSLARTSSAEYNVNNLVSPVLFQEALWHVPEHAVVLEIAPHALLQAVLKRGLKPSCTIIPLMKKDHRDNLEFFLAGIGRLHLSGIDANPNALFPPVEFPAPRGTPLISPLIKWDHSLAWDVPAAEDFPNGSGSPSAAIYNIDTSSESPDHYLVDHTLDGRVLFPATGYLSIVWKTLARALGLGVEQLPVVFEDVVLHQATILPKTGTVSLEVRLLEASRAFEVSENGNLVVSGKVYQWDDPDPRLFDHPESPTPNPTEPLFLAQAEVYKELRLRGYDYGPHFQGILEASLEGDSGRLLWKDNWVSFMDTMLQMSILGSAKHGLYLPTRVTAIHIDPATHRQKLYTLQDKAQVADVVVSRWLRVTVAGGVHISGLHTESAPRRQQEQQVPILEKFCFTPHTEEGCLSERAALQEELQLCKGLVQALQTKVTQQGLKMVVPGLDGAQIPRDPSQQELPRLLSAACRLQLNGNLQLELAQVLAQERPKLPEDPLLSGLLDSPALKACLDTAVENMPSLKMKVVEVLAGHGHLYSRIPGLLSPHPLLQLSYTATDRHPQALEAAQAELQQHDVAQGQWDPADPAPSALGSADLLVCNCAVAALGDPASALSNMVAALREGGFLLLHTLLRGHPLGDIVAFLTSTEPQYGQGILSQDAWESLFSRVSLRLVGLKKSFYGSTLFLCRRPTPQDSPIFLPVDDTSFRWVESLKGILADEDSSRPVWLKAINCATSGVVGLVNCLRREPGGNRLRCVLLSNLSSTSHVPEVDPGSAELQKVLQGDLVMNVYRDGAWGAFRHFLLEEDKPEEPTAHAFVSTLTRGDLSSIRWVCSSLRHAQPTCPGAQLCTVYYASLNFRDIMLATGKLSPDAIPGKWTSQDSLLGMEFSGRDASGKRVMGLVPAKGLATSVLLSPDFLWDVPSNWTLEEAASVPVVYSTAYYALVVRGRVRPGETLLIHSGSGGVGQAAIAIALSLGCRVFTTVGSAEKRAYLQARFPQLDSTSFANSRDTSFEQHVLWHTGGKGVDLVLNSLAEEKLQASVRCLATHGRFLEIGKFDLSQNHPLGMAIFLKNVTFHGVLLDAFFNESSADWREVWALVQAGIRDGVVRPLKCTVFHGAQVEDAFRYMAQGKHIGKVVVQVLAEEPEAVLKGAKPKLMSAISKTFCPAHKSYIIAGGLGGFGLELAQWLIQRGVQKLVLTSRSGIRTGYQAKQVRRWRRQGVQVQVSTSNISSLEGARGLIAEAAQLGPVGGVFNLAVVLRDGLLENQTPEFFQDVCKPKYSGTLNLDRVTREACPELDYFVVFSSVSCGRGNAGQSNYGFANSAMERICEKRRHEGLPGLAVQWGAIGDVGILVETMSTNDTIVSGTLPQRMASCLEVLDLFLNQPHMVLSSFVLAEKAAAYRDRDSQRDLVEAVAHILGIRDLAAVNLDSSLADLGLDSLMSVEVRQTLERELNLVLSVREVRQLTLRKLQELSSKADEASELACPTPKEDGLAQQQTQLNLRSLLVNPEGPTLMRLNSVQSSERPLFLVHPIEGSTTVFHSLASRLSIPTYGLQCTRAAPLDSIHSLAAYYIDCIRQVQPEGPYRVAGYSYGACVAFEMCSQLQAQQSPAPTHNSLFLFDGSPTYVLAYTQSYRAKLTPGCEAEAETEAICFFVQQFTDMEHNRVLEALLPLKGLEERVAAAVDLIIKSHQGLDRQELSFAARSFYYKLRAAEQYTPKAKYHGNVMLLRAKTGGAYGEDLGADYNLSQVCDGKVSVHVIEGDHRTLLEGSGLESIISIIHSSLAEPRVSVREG

Take `Cc1ccc(C(=O)N2CCC(c3ccc(C#N)cc3)CC2)cc1NC(=O)NC1CCCN(S(C)(=O)=O)C1` (centres unmarked) [Example 296, 1-[5-[4-(4-cyanophenyl)piperidine-1-carbonyl]-2-methyl-phenyl]-3-(1-methylsulfonyl-3-piperidyl)urea]: the inhibition at 100 µM was 103%.

As for `CCS(=O)(=O)N1CCCC(NC(=O)Nc2cc(C(=O)N3CCC(c4ccc(C#N)cc4)CC3)ccc2C)C1` (centres unmarked) [Example 297, 3-[5-[4-(4-cyanophenyl)piperidine-1-carbonyl]-2-methyl-phenyl]-1-(1-ethylsulfonyl-3-piperidyl)urea], the inhibition at 100 µM worked out at 97.9%.

As for `CCc1ccc(C(=O)N2CCC(c3ccc(C#N)cc3)CC2)cc1NC(=O)NC1COC1` [Example 298, 1-[5-[4-(4-cyanophenyl)piperidine-1-carbonyl]-2-ethyl-phenyl]-3-(oxetan-3-yl)urea], the inhibition at 100 µM was determined as 95.8%.

As to `Cc1ccc(C(=O)N2CCC(c3ccc(C#N)cc3)CC2)cc1NC(=O)NC1COC1` [Example 299, 1-[5-[4-(4-cyanophenyl)piperidine-1-carbonyl]-2-methyl-phenyl]-3-(oxetan-3-yl)urea], the inhibition at 100 µM was 95.1%.

With `Cc1ccc(C(=O)N2CCC(c3ccc(C#N)cc3)CC2)cc1NC(=O)NC1CNC1` [Example 300, 3-(azetidin-3-yl)-1-[5-[4-(4-cyanophenyl)piperidine-1-carbonyl]-2-methyl-phenyl]urea], the inhibition at 100 µM stood at 84.3%.

As to `Cc1ccc(C(=O)N2CCC(c3ccc(C#N)cc3)CC2)cc1NC(=O)NC1CN(C(=O)C(C)C)C1` [Example 301, 1-[5-[4-(4-cyanophenyl)piperidine-1-carbonyl]-2-methyl-phenyl]-3-[1-(2-methylpropanoyl)azetidin-3-yl]urea], the inhibition at 100 µM is 96.6%.

Take `Cc1ccc(C(=O)N2CCC(c3ccc(C#N)cc3)CC2)cc1NC(=O)NC1CN(S(C)(=O)=O)C1` [Example 302, 1-[5-[4-(4-cyanophenyl)piperidine-1-carbonyl]-2-methyl-phenyl]-3-(1-methylsulfonylazetidin-3-yl)urea]: the inhibition at 100 µM was 93.9%.

`Cc1ccc(C(=O)N2CCC(c3ccc(C#N)cc3)CC2)cc1NC(=O)NC1CN(S(=O)(=O)N(C)C)C1` [Example 303, 1-[5-[4-(4-cyanophenyl)piperidine-1-carbonyl]-2-methyl-phenyl]-3-[1-(dimethylsulfamoyl)azetidin-3-yl]urea]: the inhibition at 100 µM came out at 93.5%.

Consider `Cc1ccc(C(=O)N2CCC(c3ccc(C#N)cc3)CC2)cc1NC(=O)N1CC(N)C1` [Example 306, 3-amino-N-[5-[4-(4-cyanophenyl)piperidine-1-carbonyl]-2-methyl-phenyl]azetidine-1-carboxamide], for which the inhibition at 100 µM came out at 84.7%.

On to `CC(=O)N1CC(NC(=O)Nc2cc(C(=O)N3CCC(c4ccc(C#N)cc4)CC3)ccc2C)C1` [Example 310, 3-(1-acetylazetidin-3-yl)-1-[5-[4-(4-cyanophenyl)piperidine-1-carbonyl]-2-methyl-phenyl]urea], for which the inhibition at 100 µM worked out at 94.5%.

With `CCS(=O)(=O)N1CC(NC(=O)Nc2cc(C(=O)N3CCC(c4ccc(C#N)cc4)CC3)ccc2C)C1` [Example 311, 3-[5-[4-(4-cyanophenyl)piperidine-1-carbonyl]-2-methyl-phenyl]-1-(1-ethylsulfonylazetidin-3-yl)urea], the inhibition at 100 µM was 105%.

As to `CC(=O)NC1CN(C(=O)Nc2cc(C(=O)N3CCC(c4ccc(C#N)cc4)CC3)ccc2C)C1` [Example 312, 3-acetamido-N-[5-[4-(4-cyanophenyl)piperidine-1-carbonyl]-2-methyl-phenyl]azetidine-1-carboxamide], the inhibition at 100 µM is 88.8%.

With `Cc1ccc(C(=O)N2CCC(c3ccc(C#N)cc3)CC2)cc1NC(=O)N1CC(NS(C)(=O)=O)C1` [Example 313, N-[5-[4-(4-cyanophenyl)piperidine-1-carbonyl]-2-methyl-phenyl]-3-methanesulfonamido-azetidine-1-carboxamide], the inhibition at 100 µM came to 90.5%.

`Cc1ccc(C(=O)N2CCC(c3ccc(C#N)cc3)CC2)cc1NC(=O)N1CC(NS(=O)(=O)N(C)C)C1` [Example 314, N-[5-[4-(4-cyanophenyl)piperidine-1-carbonyl]-2-methyl-phenyl]-3-(dimethylsulfamoylamino)azetidine-1-carboxamide]: the inhibition at 100 µM came out at 87.4%.

As for `Cc1ccc(C(=O)N2CCC(c3ccc(C#N)cc3)CC2)cc1NC(=O)N[C@H]1CC[C@H](NC(=O)OC(C)(C)C)C1` [Example 316, tert-butyl N-[(1S,3S)-3-[[5-[4-(4-cyanophenyl)piperidine-1-carbonyl]-2-methyl-phenyl]carbamoylamino]cyclopentyl]carbamate], the inhibition at 100 µM came out at 99.6%.

For `Cc1ccc(C(=O)N2CCC(c3ccc(C#N)cc3)CC2)cc1NC(=O)N[C@H]1CC[C@H](N)C1` [Example 318, 3-[(1S,3S)-3-aminocyclopentyl]-1-[5-[4-(4-cyanophenyl)piperidine-1-carbonyl]-2-methyl-phenyl]urea], the inhibition at 100 µM was found to be 93.9%.

Turning to `Cc1ccc(C(=O)N2CCC(c3ccc(C#N)cc3)CC2)cc1NC(=O)N[C@H]1CC[C@H](NS(C)(=O)=O)C1` [Example 320, 1-[5-[4-(4-cyanophenyl)piperidine-1-carbonyl]-2-methyl-phenyl]-3-[(1S,3S)-3-methanesulfonamidocyclopentyl]urea], the inhibition at 100 µM stood at 94.4%.

In the case of `CC(=O)N[C@H]1CC[C@H](NC(=O)Nc2cc(C(=O)N3CCC(c4ccc(C#N)cc4)CC3)ccc2C)C1` [Example 321, N-[(1S,3S)-3-[[5-[4-(4-cyanophenyl)piperidine-1-carbonyl]-2-methyl-phenyl]carbamoylamino]cyclopentyl]acetamide], the inhibition at 100 µM is 96.7%.

Regarding `Cc1ccc(C(=O)N2CCC(c3ccc(C#N)cc3)CC2)cc1NC(=O)N1CCN(S(C)(=O)=O)CC1` [Example 322, N-[5-[4-(4-cyanophenyl)piperidine-1-carbonyl]-2-methyl-phenyl]-4-methylsulfonyl-piperazine-1-carboxamide], the inhibition at 100 µM was 90.5%.

With `Cc1ccc(C(=O)N2CCC(c3ccc(C#N)cc3)CC2)cc1NC(=O)N[C@H]1CC[C@H](NS(=O)(=O)N(C)C)C1` [Example 323, 1-[5-[4-(4-cyanophenyl)piperidine-1-carbonyl]-2-methyl-phenyl]-3-[(1S,3S)-3-(dimethylsulfamoylamino)cyclopentyl]urea], the inhibition at 100 µM stood at 94%.

In the case of `CCS(=O)(=O)N[C@H]1CC[C@H](NC(=O)Nc2cc(C(=O)N3CCC(c4ccc(C#N)cc4)CC3)ccc2C)C1` [Example 324, 3-[5-[4-(4-cyanophenyl)piperidine-1-carbonyl]-2-methyl-phenyl]-1-[(1S,3S)-3-(ethylsulfonylamino)cyclopentyl]urea], the inhibition at 100 µM was determined as 97.1%.

Regarding `Cc1ccc(C(=O)N2CCC(c3ccc(F)cc3)CC2)cc1NC(=O)NC(C)C` [Example 325, 1-[5-[4-(4-fluorophenyl)piperidine-1-carbonyl]-2-methyl-phenyl]-3-propan-2-yl-urea], the inhibition at 100 µM was determined as 72.6%.

In the case of `CC(=O)NCCNC(=O)Nc1cc(C(=O)N2CCC(c3ccc(C(F)(F)F)cc3)CC2)ccc1C` [Example 326, N-[2-[[2-methyl-5-[4-[4-(trifluoromethyl)phenyl]piperidine-1-carbonyl]phenyl]carbamoylamino]ethyl]acetamide], the inhibition at 100 µM amounted to 91.8%.
